Experiment [1] can be described thus: cytotoxicity in MIN6 insulinoma cells, dose response, cytotoxicity control, cell-based, mouse insulinoma (AID 2122).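 Further: confirmatory high-throughput counterscreen run to flag cytotoxic compounds; mouse MIN-6 beta cells carrying an insulin promoter eGFP reporter.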 It is filed as functional.
The nature of experiment [2]: insulin promoter down-regulators in MIN6 cells, imaging, high-content screening, mouse beta cells (AID 1628). The format is functional.
A short description of experiment [3]: inhibitors of intracellular T. cruzi replication, confirmation, NIH3T3 host cells, beta-gal luminescence (AID 2044).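 Further: intracellular parasites grown in NIH/3T3 mouse fibroblasts as host cells; luminescent beta-galactosidase reporter signal from transgenic T. cruzi replicating inside host cells; inhibitors lower the luminescence signal.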 It is filed as functional, cell-based.
Experiment [4] in a line: cytotoxicity toward NIH3T3 fibroblasts, dose response, counter-screen, cell-based, ATP luminescence, mouse fibroblasts (AID 2010).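 Further: cells exposed to compound for about 90 hours before reading.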 It is filed as functional.
Experiment [5] can be described thus: HEp-2 cell cytotoxicity, dose response, cytotoxicity control for RSV inhibitor project, HTS (AID 2410). It is filed as functional. The note with it: human respiratory syncytial virus.
For experiment [6], the target named is Peroxisome proliferator-activated receptor gamma/Nuclear receptor coactivator 1 (Homo sapiens, UniProt P37231). Nature of the experiment: TR-FRET dose response biochemical High Throughput Screening assay for agonists of the steroid receptor coactivator 1 (SRC-1) recruitment by the peroxisome proliferator-activated receptor gamma (PPAR gamma): non-selective agonists. [Related pubchem assays (depositor defined):AID1300, AID1808, AID504735, AID631]. It is filed as protein assay.

For experiment [7], the target named is Peroxisome proliferator-activated receptor gamma/Nuclear receptor coactivator 2 (Homo sapiens, UniProt P37231). Nature of the experiment: TR-FRET dose response biochemical High Throughput Screening assay for agonists of the steroid receptor coactivator 2 (SRC-2) recruitment by the peroxisome proliferator-activated receptor gamma (PPAR gamma): non-selective agonists. [Related pubchem assays: 1297, 1032 ]. It is filed as functional.
Sequence of Peroxisome proliferator-activated receptor gamma/Nuclear receptor coactivator 2 (P37231 whole entry): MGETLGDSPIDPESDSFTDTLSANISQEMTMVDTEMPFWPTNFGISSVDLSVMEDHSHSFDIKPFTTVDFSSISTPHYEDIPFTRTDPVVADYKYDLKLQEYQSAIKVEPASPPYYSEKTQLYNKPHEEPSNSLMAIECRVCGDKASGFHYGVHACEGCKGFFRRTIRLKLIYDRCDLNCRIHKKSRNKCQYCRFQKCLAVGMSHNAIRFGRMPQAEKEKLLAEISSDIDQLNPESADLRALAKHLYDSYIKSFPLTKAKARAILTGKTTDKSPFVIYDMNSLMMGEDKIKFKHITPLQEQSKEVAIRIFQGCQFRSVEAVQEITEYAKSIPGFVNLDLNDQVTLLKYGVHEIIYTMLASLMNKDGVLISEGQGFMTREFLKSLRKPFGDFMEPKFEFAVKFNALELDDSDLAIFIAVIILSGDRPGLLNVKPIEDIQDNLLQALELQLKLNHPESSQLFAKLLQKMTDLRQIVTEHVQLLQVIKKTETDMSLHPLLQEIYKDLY
Sequence of Peroxisome proliferator-activated receptor gamma/Nuclear receptor coactivator 2 (Q15596 whole entry, further chain): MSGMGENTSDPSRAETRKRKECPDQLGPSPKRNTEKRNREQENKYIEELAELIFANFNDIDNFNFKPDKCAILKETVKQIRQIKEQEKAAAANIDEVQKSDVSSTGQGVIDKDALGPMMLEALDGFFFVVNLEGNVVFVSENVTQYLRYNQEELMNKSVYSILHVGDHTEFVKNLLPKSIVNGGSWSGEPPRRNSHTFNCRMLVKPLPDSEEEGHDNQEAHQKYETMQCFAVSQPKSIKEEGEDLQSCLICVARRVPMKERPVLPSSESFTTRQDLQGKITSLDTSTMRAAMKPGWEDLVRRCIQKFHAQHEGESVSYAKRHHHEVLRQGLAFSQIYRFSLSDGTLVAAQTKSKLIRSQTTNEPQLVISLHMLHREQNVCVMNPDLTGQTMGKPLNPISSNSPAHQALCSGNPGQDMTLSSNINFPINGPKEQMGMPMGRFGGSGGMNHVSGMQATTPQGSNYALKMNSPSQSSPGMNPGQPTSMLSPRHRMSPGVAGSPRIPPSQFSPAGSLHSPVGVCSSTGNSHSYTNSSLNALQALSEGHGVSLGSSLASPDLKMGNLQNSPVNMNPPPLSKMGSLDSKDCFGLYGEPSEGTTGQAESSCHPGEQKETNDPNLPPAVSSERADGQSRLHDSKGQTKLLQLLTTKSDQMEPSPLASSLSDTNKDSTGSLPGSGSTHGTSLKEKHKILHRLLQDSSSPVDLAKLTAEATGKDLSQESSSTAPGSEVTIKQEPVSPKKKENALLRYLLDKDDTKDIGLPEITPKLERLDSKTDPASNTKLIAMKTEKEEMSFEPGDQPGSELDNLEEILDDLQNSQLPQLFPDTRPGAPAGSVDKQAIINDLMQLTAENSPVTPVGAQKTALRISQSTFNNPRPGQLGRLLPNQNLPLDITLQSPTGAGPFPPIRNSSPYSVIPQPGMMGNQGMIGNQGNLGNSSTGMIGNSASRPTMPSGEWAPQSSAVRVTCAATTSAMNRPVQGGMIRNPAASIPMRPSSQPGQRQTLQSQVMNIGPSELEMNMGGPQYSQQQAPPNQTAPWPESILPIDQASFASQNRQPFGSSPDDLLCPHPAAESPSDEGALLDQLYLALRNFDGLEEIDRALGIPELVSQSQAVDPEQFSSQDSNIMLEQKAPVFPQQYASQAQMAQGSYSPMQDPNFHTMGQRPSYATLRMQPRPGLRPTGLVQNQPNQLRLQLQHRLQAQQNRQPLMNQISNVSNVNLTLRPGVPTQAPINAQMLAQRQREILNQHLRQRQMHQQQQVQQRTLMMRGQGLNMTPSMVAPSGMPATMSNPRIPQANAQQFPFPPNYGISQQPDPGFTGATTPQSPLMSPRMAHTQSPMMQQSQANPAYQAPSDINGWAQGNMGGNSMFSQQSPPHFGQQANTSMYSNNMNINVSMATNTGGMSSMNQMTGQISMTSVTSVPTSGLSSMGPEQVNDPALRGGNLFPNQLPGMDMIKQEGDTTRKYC

The target of the next experiment is T1, Protein RecA (Mycobacterium tuberculosis, UniProt P9WHJ3).
T1 sequence (P9WHJ3 whole entry): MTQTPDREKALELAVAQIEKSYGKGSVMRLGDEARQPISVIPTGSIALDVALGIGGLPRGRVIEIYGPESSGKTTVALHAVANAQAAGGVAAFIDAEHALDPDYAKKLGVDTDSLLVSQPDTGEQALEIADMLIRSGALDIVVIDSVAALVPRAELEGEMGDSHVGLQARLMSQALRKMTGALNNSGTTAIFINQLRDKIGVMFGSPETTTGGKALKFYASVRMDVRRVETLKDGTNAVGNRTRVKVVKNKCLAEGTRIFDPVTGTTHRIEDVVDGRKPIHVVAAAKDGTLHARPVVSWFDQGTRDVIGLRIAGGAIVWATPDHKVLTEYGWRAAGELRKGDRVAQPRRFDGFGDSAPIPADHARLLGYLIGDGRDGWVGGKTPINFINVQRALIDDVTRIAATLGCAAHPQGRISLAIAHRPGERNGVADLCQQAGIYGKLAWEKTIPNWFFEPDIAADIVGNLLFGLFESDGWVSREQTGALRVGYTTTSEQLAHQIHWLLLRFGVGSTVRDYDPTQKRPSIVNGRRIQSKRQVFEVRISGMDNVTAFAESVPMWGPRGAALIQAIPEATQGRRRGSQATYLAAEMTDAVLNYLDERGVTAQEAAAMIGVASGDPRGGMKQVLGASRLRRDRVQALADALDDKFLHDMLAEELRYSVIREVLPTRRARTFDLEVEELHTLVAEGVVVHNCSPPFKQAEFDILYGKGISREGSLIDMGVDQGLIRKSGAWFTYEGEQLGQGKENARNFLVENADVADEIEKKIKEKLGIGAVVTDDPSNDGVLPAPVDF
Nature of the experiment: Fluorescence Cell-Free Homogeneous Dose Retest to Identify Inhibitors of RecA-Intein Splicing Activity. [Related pubchem assays (depositor defined):AID2097, AID2223, AID489010, AID492950]. The format is functional.

Experiment [8] concerns the target Peroxisome proliferator-activated receptor gamma/Nuclear receptor coactivator 3 (Homo sapiens, UniProt P37231). Nature of the experiment: TR-FRET dose response biochemical High Throughput Screening assay for agonists of the steroid receptor coactivator 3 (SRC-3) recruitment by the peroxisome proliferator-activated receptor gamma (PPAR gamma): non-selective agonists. [Related pubchem assays: 1301 (Confirmation screen.), 1048 (Primary screen.)]. It is filed as functional. For orientation: Time-resolved FRET reads energy transfer from a long-lived donor to a nearby acceptor.

For experiment [9], the target named is T2, Replicative DNA helicase DnaB (Mycobacterium tuberculosis, UniProt P9WMR3).
T2 sequence (P9WMR3 whole entry): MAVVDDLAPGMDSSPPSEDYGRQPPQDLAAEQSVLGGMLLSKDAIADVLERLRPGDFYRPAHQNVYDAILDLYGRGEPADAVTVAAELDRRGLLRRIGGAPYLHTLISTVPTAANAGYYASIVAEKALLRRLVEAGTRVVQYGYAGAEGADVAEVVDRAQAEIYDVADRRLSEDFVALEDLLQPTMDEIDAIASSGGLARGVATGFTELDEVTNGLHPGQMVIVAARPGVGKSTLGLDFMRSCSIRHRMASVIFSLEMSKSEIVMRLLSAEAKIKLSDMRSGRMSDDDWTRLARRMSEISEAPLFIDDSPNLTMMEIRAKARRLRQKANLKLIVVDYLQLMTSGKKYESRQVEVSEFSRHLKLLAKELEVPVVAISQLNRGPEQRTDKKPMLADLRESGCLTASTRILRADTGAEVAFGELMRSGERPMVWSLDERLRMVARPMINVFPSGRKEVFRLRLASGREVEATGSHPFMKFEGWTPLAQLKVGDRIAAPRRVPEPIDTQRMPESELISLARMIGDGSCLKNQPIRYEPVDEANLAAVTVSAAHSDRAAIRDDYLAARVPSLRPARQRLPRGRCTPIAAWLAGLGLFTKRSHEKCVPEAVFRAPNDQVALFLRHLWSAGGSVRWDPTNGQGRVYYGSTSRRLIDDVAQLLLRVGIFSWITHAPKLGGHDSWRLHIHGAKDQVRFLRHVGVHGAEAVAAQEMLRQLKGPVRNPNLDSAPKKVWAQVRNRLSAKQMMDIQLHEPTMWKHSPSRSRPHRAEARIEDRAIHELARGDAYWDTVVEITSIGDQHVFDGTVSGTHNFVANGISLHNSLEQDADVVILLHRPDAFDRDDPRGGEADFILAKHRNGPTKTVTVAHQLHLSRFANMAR
Nature of the experiment: DnaB intein splicing inhibitors, dose response, biochemical, cell-free fluorescence (AID 449749). The format is functional.

Experiment [10] deals with T3, High affinity choline transporter 1 (Homo sapiens, UniProt Q9GZV3).
T3 sequence (Q9GZV3 whole entry): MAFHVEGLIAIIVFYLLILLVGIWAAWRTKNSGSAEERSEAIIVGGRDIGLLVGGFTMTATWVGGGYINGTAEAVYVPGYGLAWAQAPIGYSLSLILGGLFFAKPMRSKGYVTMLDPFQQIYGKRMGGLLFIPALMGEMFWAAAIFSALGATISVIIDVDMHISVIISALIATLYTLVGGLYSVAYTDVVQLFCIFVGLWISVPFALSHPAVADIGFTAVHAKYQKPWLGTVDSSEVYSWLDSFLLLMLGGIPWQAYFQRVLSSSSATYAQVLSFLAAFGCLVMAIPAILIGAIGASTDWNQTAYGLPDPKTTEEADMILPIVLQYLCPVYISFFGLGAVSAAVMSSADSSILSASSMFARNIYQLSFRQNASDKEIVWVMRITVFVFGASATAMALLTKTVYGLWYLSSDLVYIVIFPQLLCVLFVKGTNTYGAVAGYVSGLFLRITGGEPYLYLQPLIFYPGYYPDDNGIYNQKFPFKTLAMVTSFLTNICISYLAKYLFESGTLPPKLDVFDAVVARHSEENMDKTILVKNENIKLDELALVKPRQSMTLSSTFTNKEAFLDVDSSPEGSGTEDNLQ
Nature of the experiment: CHT inhibitors, dose response, cell-based, 5-point CRC, membrane potential dye (AID 504840). The format is functional.

Experiment [11] concerns the target T4, Corticotropin-releasing factor receptor 2/Corticotropin-releasing factor-binding protein (Homo sapiens, UniProt P24387+Q13324).
T4 sequence (Q13324 whole entry): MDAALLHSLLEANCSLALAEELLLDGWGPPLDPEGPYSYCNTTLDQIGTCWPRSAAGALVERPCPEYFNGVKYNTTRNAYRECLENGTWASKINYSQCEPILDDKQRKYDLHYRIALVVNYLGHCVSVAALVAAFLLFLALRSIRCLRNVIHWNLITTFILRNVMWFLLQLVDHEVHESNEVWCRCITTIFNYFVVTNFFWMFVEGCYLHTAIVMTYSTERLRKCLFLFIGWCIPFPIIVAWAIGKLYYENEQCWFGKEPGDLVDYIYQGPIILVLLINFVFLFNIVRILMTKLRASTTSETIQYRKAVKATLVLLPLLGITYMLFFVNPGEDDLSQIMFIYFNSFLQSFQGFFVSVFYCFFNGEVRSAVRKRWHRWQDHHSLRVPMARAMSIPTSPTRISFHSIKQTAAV
T4 sequence (P24387 whole entry): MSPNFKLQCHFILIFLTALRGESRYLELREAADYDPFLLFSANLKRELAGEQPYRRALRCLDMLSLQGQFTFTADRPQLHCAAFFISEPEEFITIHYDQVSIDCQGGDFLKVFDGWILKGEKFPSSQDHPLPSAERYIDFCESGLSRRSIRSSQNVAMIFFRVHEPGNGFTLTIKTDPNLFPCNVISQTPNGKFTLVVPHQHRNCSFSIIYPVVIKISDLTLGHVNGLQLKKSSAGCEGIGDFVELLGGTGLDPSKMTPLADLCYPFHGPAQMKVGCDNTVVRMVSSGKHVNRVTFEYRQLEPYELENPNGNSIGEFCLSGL
Nature of the experiment: activators of CRF receptor 2 with binding protein – uHTS hits, confirmation (AID 602473). The following applies: read-out: EC50_Mean. It is filed as functional.

Experiment [12] concerns the target T5, Heat shock factor protein 1 (Mus musculus, UniProt P38532).
T5 sequence (P38532 whole entry): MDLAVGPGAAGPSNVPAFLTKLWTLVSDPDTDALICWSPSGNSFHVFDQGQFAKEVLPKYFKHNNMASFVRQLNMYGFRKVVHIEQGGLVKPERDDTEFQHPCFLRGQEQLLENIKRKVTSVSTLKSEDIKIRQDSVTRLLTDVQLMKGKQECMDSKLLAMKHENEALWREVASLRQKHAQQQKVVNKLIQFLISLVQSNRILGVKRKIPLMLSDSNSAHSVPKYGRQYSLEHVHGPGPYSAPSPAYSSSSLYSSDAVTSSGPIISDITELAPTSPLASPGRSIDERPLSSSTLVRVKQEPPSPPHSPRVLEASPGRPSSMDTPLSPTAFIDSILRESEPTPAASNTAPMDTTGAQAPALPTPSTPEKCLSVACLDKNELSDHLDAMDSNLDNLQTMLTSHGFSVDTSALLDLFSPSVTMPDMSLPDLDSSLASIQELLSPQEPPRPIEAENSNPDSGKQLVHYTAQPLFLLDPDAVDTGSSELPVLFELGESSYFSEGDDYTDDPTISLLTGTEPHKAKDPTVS
Nature of the experiment: HSF1 potentiators in luciferase reporter cells, confirmation, cell-based, NIH3T3, luminescence, dose retest (AID 435004).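 Further: stress induced by proteasome inhibitor MG132 added 30 min after compound; luciferase reporter driven by HSF1 response element in NIH3T3 cells; actives raise luminescence as potentiators of the MG132 stress response.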 The format is functional. (In general: In a reporter assay the amount or activity of a reporter protein is the signal.)

Experiment [13] deals with T4, Corticotropin-releasing factor receptor 2/Corticotropin-releasing factor-binding protein. Nature of the experiment: Dose Response confirmation of uHTS hits for small molecule antagonists of the CRF-binding protein and CRF-R2 receptor complex. The format is functional. The note with it: read-out: IC50_Mean.

Activity calls are given as the source filed them.

Sequence of Peroxisome proliferator-activated receptor gamma/Nuclear receptor coactivator 3 (P37231 whole entry): as the sequence (P37231 whole entry) above
Sequence of Peroxisome proliferator-activated receptor gamma/Nuclear receptor coactivator 3 (Q9Y6Q9 whole entry, further chain): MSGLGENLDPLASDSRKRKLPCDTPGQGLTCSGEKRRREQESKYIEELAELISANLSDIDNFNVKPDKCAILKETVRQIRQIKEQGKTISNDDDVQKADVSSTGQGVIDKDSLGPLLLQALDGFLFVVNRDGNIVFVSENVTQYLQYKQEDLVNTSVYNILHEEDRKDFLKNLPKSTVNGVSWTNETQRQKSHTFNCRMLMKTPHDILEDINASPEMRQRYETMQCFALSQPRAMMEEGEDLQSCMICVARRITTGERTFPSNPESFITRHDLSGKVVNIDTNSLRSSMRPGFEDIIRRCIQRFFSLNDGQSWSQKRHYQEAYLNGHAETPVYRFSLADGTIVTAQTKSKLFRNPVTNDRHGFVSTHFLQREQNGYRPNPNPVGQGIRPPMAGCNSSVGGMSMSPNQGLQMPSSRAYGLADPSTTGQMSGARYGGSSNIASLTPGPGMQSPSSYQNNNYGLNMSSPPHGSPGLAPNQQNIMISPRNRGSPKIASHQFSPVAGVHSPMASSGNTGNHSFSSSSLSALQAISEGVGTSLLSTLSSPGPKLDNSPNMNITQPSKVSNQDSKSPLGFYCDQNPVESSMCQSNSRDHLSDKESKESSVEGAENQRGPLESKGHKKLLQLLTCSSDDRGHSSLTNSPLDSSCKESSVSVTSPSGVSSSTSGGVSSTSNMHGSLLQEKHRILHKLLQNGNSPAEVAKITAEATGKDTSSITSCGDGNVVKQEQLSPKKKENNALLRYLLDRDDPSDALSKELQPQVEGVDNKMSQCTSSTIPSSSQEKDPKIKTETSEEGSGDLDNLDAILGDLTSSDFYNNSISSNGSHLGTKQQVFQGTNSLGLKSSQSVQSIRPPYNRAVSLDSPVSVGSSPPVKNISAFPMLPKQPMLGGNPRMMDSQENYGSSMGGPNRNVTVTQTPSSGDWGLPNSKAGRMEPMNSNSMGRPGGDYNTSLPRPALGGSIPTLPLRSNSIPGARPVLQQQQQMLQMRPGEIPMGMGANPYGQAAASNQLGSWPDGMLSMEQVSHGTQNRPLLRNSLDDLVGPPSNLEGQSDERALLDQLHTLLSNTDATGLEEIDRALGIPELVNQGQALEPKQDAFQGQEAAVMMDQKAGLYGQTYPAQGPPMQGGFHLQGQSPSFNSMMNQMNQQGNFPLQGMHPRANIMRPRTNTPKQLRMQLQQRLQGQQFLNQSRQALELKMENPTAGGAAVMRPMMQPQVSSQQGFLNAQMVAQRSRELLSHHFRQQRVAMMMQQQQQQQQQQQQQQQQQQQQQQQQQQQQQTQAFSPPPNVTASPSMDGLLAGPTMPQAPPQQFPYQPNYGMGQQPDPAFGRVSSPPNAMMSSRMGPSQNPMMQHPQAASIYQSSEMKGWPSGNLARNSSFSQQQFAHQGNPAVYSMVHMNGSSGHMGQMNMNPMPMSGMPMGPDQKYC

In the case of `Cc1ccc(-c2noc(CCC(=O)NCCCN3CCN(c4ccc(F)cc4)CC3)n2)cc1`, the values for the IC50 in experiment [1] and in experiment [2] were 3.21 µM (active) and 3.28 µM (active), respectively.

For the compound `N=c1ccn(Cc2cccc(Cl)c2)cc1`, the IC50 in experiment [1] is 3.41 µM (active); in experiment [2] it was 3.15 µM (active).

Turning to `COc1cc(-c2nn3c(-c4ccccc4)nnc3s2)cc(OC)c1OC`, the IC50 was > 16 µM (inactive) in experiment [1] and 3.22 µM (active) in experiment [2].

A word on the CC50: it is the concentration that lowers cell viability or growth by half. As to `O=C(NCc1cn(-c2ccccc2)nc1-c1ccc(F)cc1)c1cccc([N+](=O)[O-])c1`, the results for the EC50 in experiment [3] and in experiment [4] were 0.805 µM (active) and > 60 µM (not active), respectively. The CC50 in [5] is 28.1 µM (active). Moreover, the results for the IC50 in experiment [1] and in experiment [2] were 4.31 µM (active) and 2.91 µM (active), respectively.

Broadly, the AC50 is the concentration giving half of the maximal activity seen. Take `O=C(CSc1c2c(nc3cc(Cl)ccc13)CCCC2)NCc1ccco1`: the EC50 in experiment [6] was > 79.4 µM (inactive); in experiment [7], > 79.4 µM (not active); at Protein RecA, 7.14 µM (active); in [8], > 79.4 µM (not active). In addition, the AC50 in experiment [9] is 27.9 µM (active).

For the compound `CC1(C)CC2CC(C)(CN2c2ncnc3ccccc23)C1` (stereo not given), the values for the IC50 in experiment [10], in experiment [1] and in experiment [2] were 6.74 µM (active), 1.16 µM (active) and 1.7 µM (active), respectively.

Take `CC(=O)C1=C(O)C(=O)N(c2nccs2)C1c1ccccc1` (stereo not given): the EC50 is 86.4 µM (inactive) in experiment [6]; > 53 µM (inactive) in [11]; 35.4 µM (not active) in [7]; > 79.4 µM (not active) in [8]; > 260 µM (inactive) in [12]. Also, the IC50 in [13] is > 47.1 µM (inactive).

Source of the values: ChEMBL document CHEMBL1201862, “PubChem BioAssay data set” (2004).
